The test system of this experiment is BDF1 mice, P388 leukemia ip, median survival T/C. Nature of the experiment: NCI In Vivo Anticancer Drug Screen. Data for tumor model P388 Leukemia (intraperitoneal) in B6D2F1 (BDF1) mice. To be noted: endpoint: median survival time, higher = longer survival. A digest of the protocol:
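In tumour-bearing mice, survival after compound treatment is set against the vehicle group and given as a quotient.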

[1] abbreviates: dose: 50.0 mg/kg/injection, schedule: Q04DX003 (ip), vehicle: saline with Tween-80.
[2] abbreviates: dose: 100.0 mg/kg/injection, schedule: Q01DX005 (ip), vehicle: saline with Tween-80.
[3] abbreviates: dose: 100.0 mg/kg/injection, schedule: Q04DX003 (ip), vehicle: saline with Tween-80.
The mark [4] stands for this setting: dose: 200.0 mg/kg/injection, schedule: Q01DX005 (ip), vehicle: saline with Tween-80.
The mark [5] stands for this setting: dose: 200.0 mg/kg/injection, schedule: Q04DX003 (ip), vehicle: saline with Tween-80.
Where [6] appears, read: dose: 37.5 mg/kg/injection, schedule: Q04DX003 (ip), vehicle: saline with Tween-80.
Setting [7] is: dose: 25.0 mg/kg/injection, schedule: Q01DX001 (ip), vehicle: saline with Tween-80.
[8] abbreviates: dose: 50.0 mg/kg/injection, schedule: Q01DX001 (ip), vehicle: saline with Tween-80.
The mark [9] stands for this setting: dose: 100.0 mg/kg/injection, schedule: Q01DX001 (ip), vehicle: saline with Tween-80.
Where [10] appears, read: dose: 25.0 mg/kg/injection, schedule: Q04DX003 (ip), vehicle: saline with Tween-80.
Setting [11] is: dose: 400.0 mg/kg/injection, schedule: Q04DX003 (ip), vehicle: saline with Tween-80.
Where [12] appears, read: dose: 100.0 mg/kg/injection, schedule: Q04DX003 (ip), vehicle: Klucel (hydroxypropylcellulose) (HPC).
Where [13] appears, read: dose: 200.0 mg/kg/injection, schedule: Q04DX003 (ip), vehicle: Klucel (hydroxypropylcellulose) (HPC).
Where [14] appears, read: dose: 400.0 mg/kg/injection, schedule: Q04DX003 (ip), vehicle: Klucel (hydroxypropylcellulose) (HPC).
[15] abbreviates: dose: 50.0 mg/kg/injection, schedule: Q01DX009 (ip), vehicle: saline.
Setting [16] is: dose: 50.0 mg/kg/injection, schedule: Q04DX003 (ip), vehicle: saline.
[17] abbreviates: dose: 100.0 mg/kg/injection, schedule: Q01DX009 (ip), vehicle: saline.
Setting [18] is: dose: 100.0 mg/kg/injection, schedule: Q04DX003 (ip), vehicle: saline.
The mark [19] stands for this setting: dose: 200.0 mg/kg/injection, schedule: Q01DX009 (ip), vehicle: saline.

“And” between values parts separate entries of the source, which are not always exact repeats. Equal entries are not always repeated. Inconclusive results and toxic doses are left out.

For `N#CC1C(=O)NC(=O)C(C#N)C12CCCCC2` (stereo not given), the T/C was 100 % of control (dose: 50.0 mg/kg/injection, schedule: Q01DX005 (ip), vehicle: saline with Tween-80); 110 % of control under setting [1]; 100 % of control under setting [2]; 120 % of control under setting [3]; 109 % of control under setting [4]; 105 % of control under setting [5].

In the case of `O=c1[nH]cnc2ccc(Cl)cc12`, the T/C was 92 % of control (dose: 37.5 mg/kg/injection, schedule: Q01DX009 (ip), vehicle: saline with Tween-80); 92 % of control under setting [6]; 96 % of control (dose: 75.0 mg/kg/injection, schedule: Q01DX009 (ip), vehicle: saline with Tween-80).

In the case of `CCC(C(O)c1cccs1)C(O)(C(F)(F)F)C(F)(F)F` (stereo not given), the T/C under setting [3] is 95 % of control and the T/C under setting [5] was 100 % of control.

`Nc1nc2c(ncn2C2CC(O)C(CO)O2)c(=O)n1N` (stereo not given): the T/C (dose: 12.5 mg/kg/injection, schedule: Q01DX009 (ip), vehicle: saline with Tween-80) was 97 % of control; the T/C (dose: 25.0 mg/kg/injection, schedule: Q01DX009 (ip), vehicle: saline with Tween-80) is 111 % of control; the T/C (dose: 50.0 mg/kg/injection, schedule: Q01DX009 (ip), vehicle: saline with Tween-80) is 108 % of control; the T/C (dose: 100.0 mg/kg/injection, schedule: Q01DX009 (ip), vehicle: saline with Tween-80) was 101 % of control.

Consider `CC1CC2OC(=O)C3=C2C(CCC3)C12CC(c1ccoc1)OC2=O` (stereo not given), for which the T/C is, setting by setting: under setting [7], 111 % of control; under setting [8], 106 % of control; under setting [9], 106 % of control; (dose: 200.0 mg/kg/injection, schedule: Q01DX001 (ip), vehicle: saline with Tween-80) 116 % of control.

Turning to `O=C1CC(=Nc2ccccc2)N(c2ccccc2)N1`, the T/C (dose: 33.75 mg/kg/injection, schedule: Q01DX009 (ip), vehicle: saline with Tween-80) is 109 % of control; the T/C (dose: 67.5 mg/kg/injection, schedule: Q01DX009 (ip), vehicle: saline with Tween-80) is 91 % of control; the T/C (dose: 135.0 mg/kg/injection, schedule: Q01DX009 (ip), vehicle: saline with Tween-80) is 89 % of control.

On to `OCCOCCN1CCN(CC/C=C2\c3ccccc3Sc3ccc(C(F)(F)F)cc32)CC1`, for which the T/C (dose: 0.75 mg/kg/injection, schedule: Q01DX009 (ip), vehicle: saline) was 95 % of control; the T/C (dose: 1.5 mg/kg/injection, schedule: Q01DX009 (ip), vehicle: saline) is 90 % of control; the T/C (dose: 3.0 mg/kg/injection, schedule: Q01DX009 (ip), vehicle: saline) was 95 % of control.

Turning to `O=[N+]([O-])c1ccc(C(O)Nc2nccs2)o1` (stereo not given), the T/C is 95 % of control under setting [10]; 100 % of control and 104 % of control under setting [1]; 100 % of control under setting [3].

As for `CN(C)c1ccc(C(=O)c2ccc(N(C)C)cc2)cc1`, the T/C is 113 % of control under setting [3]; 108 % of control (dose: 118.0 mg/kg/injection, schedule: Q04DX003 (ip), vehicle: saline with Tween-80); 106 % of control and 110 % of control (dose: 177.0 mg/kg/injection, schedule: Q04DX003 (ip), vehicle: saline with Tween-80); 109 % of control under setting [5]; 120 % of control (dose: 264.0 mg/kg/injection, schedule: Q04DX003 (ip), vehicle: saline with Tween-80); 103 % of control (dose: 265.0 mg/kg/injection, schedule: Q04DX003 (ip), vehicle: saline with Tween-80). Besides, the T/C by setting is: (dose: 266.0 mg/kg/injection, schedule: Q04DX003 (ip), vehicle: saline with Tween-80) 100 % of control; under setting [11], 105 % of control.

Regarding `COC(=O)c1c(I)cccc1[N+](=O)[O-]`, the T/C by setting is: under setting [12], 91 % of control; under setting [13], 95 % of control; under setting [14], 100 % of control.

As for `NC(=O)CC1=NCCc2ccccc21`, the T/C by setting is: under setting [15], 95 % of control; under setting [16], 100 % of control; under setting [17], 91 % of control; under setting [18], 100 % of control; under setting [19], 91 % of control; (dose: 200.0 mg/kg/injection, schedule: Q04DX003 (ip), vehicle: saline) 113 % of control.

In the case of `CN(N=O)C(N)=O`, the T/C reads like this: under setting [10], 150 % of control; under setting [6], 154 % of control.

Turning to `CN(CC[N+]1(C)CCCC1)P(=O)(N1CCCC1)N1CCCC1`, the T/C runs as follows: under setting [15], 106 % of control; under setting [17], 101 % of control; under setting [19], 109 % of control.

On to `CN(C)CC(=O)N/N=C\c1ccc([N+](=O)[O-])s1`, for which the T/C was 87 % of control (dose: 25.0 mg/kg/injection, schedule: Q04DX003 (ip), vehicle: saline); 87 % of control under setting [16]; 91 % of control under setting [18].

For `O=C(CCN1CCCCC1)c1ccc(C(F)(F)F)cc1`, the T/C runs as follows: (dose: 0.39 mg/kg/injection, schedule: Q01DX009 (ip), vehicle: saline) 100 % of control and 116 % of control; (dose: 0.78 mg/kg/injection, schedule: Q01DX009 (ip), vehicle: saline) 102 % of control and 116 % of control; (dose: 1.56 mg/kg/injection, schedule: Q01DX009 (ip), vehicle: saline) 100 % of control; (dose: 6.25 mg/kg/injection, schedule: Q01DX009 (ip), vehicle: saline with Tween-80) 99 % of control.

As to `CCCCCCOB(OCCCCCC)OCCCCCC`, the T/C by setting is: (dose: 22.5 mg/kg/injection, schedule: Q01DX009 (ip), vehicle: saline with Tween-80) 94 % of control; (dose: 45.0 mg/kg/injection, schedule: Q01DX009 (ip), vehicle: saline with Tween-80) 97 % of control; (dose: 90.0 mg/kg/injection, schedule: Q01DX009 (ip), vehicle: saline with Tween-80) 102 % of control.

Turning to `CCOC(=O)c1sc2nc(C)cc(C)c2c1N`, the T/C by setting is: under setting [2], 100 % of control; under setting [4], 110 % of control.

Turning to `CC(C)SC(=O)C[Si](C)(C)C`, the T/C reads like this: under setting [3], 166 % of control; under setting [5], 166 % of control.

Take `CCOC(=O)C(C#N)N=Nc1ccccc1` (stereo not given): the T/C was 90 % of control under setting [3], 95 % of control under setting [5] and 90 % of control under setting [11].

On to `Cn1c(=O)n(C)c2ccccc21`, for which the T/C is 90 % of control (dose: 15.0 mg/kg/injection, schedule: Q01DX001 (ip), vehicle: saline); 90 % of control and 100 % of control under setting [7]; 90 % of control (dose: 25.0 mg/kg/injection, schedule: Q01DX001 (ip), vehicle: saline); 100 % of control (dose: 35.0 mg/kg/injection, schedule: Q01DX001 (ip), vehicle: saline); 104 % of control under setting [8]; 100 % of control (dose: 50.0 mg/kg/injection, schedule: Q01DX001 (ip), vehicle: saline). For the same compound, the T/C reads like this: (dose: 75.0 mg/kg/injection, schedule: Q01DX001 (ip), vehicle: saline) 90 % of control; under setting [9], 90 % of control and 95 % of control; under setting [12], 95 % of control; under setting [13], 91 % of control; under setting [14], 91 % of control.

As for `CC(C)(C#N)N=NC(C)(C)C#N`, the T/C was 95 % of control (dose: 12.5 mg/kg/injection, schedule: Q01DX009 (ip), vehicle: Klucel (hydroxypropylcellulose) (HPC)); 90 % of control (dose: 25.0 mg/kg/injection, schedule: Q01DX009 (ip), vehicle: Klucel (hydroxypropylcellulose) (HPC)); 90 % of control (dose: 50.0 mg/kg/injection, schedule: Q01DX009 (ip), vehicle: Klucel (hydroxypropylcellulose) (HPC)).

Take `Cc1ccccc1N=P(c1ccccc1)(c1ccccc1)c1ccccc1`: the T/C is, setting by setting: (dose: 50.0 mg/kg/injection, schedule: Q01DX009 (ip), vehicle: gum acacia) 88 % of control; (dose: 100.0 mg/kg/injection, schedule: Q01DX009 (ip), vehicle: gum acacia) 88 % of control; (dose: 100.0 mg/kg/injection, schedule: Q04DX003 (ip), vehicle: gum acacia) 96 % of control; (dose: 200.0 mg/kg/injection, schedule: Q04DX003 (ip), vehicle: gum acacia) 96 % of control.

The values above are taken from PubChem BioAssay AID328 (DTP/NCI, 2004).
